# Where two headings read alike, the source gives them in different places.
# Assays:
# [1] = test system: MDA-MB-453; assay: Inhibition of tumor cell proliferation, CellTiter-Glo, MDA-MB-453; assay type: cell-based; details: compound concentration 50 μM, 72 hours; for cell survival rate (%) at 50 µM: Homo sapiens, MDA-MB-453, read-out: Inhibitory activity against proliferation (cell survival rate) MDA-MB-453
# Summary of the method: (§1)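 Cells seeded at 2000-10000 cells/well in complete medium at 37° C., 5% CO2; suspension lines dosed immediately, adherent lines after attachment. Viability by CellTiter-Glo luminescence at 72 h; survival % from blank-corrected RLU vs control. Scored at 50 μM: + (60-<90%), ++ (>30-60%), +++ (≤30%).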
# [2] = test system: A549; assay: Inhibition of tumor cell proliferation, CellTiter-Glo, A549; assay type: cell-based; details: compound concentration 50 μM, 72 hours; for cell survival rate (% of control) at 50 µM: Homo sapiens, A549, read-out: Inhibitory activity against proliferation (cell survival rate) A549
# Summary of the method: as §1
# [3] = test system: BxPC-3; assay: Inhibition of tumor cell proliferation, CellTiter-Glo, BxPC-3; assay type: cell-based; details: compound concentration 50 μM, 72 hours; for cell survival rate (%) at 50 µM: Homo sapiens, BXPC-3, read-out: Inhibitory activity against proliferation (cell survival rate) BxPC-3
# Summary of the method: as §1
# [4] = test system: SU-DHL6; assay: Inhibition of tumor cell proliferation, CellTiter-Glo, SU-DHL6; assay type: cell-based; details: compound concentration 50 μM, 72 hours; for cell survival rate (% of control) at 50 µM: Homo sapiens, SU-DHL-6, read-out: Inhibitory activity against proliferation (cell survival rate) SU-DHL6
# Summary of the method: as §1
# [5] = test system: K562; assay: Inhibition of tumor cell proliferation, CellTiter-Glo, K562; assay type: cell-based; details: compound concentration 50 μM, 72 hours; for cell survival rate (%) at 50 µM: Homo sapiens, K562, read-out: Inhibitory activity against proliferation (cell survival rate) K562
# Summary of the method: as §1
# [6] = target: LC3B (Homo sapiens (Human), UniProt Q9GZQ8); assay: Fluorescence polarization experiment targeting LC3B (GST-LC3B with FITC-labeled peptide)
# [7] = test system: RPMI-8226; assay: Inhibition of tumor cell proliferation, CellTiter-Glo, RPMI-8226; assay type: cell-based; details: compound concentration 50 μM, 72 hours; for cell survival rate (% of control) at 50 µM: Homo sapiens, RPMI-8226, read-out: Inhibitory activity against proliferation (cell survival rate) RPMI-8226
# Summary of the method: as §1
# [8] = GST-LC3B 180 nM, FITC-labeled peptide 18 nM, 25° C.
IC50 [6] [µM],SMILES,Inhibitory activity against proliferation (cell survival rate) MDA-MB-453 [1],Inhibitory activity against proliferation (cell survival rate) A549 [2],Inhibitory activity against proliferation (cell survival rate) BxPC-3 [3],Inhibitory activity against proliferation (cell survival rate) SU-DHL6 [4],Inhibitory activity against proliferation (cell survival rate) K562 [5],"IC50 [6, 8] [µM]",Inhibitory activity against proliferation (cell survival rate) RPMI-8226 [7],cell survival rate (%) at 50 µM [1] [%],cell survival rate (% of control) at 50 µM [2] [%],cell survival rate (%) at 50 µM [3] [%],cell survival rate (% of control) at 50 µM [4] [%],cell survival rate (%) at 50 µM [5] [%],cell survival rate (% of control) at 50 µM [7] [%]
,O=C1CCC(N2Cc3c(NC=C4C(=O)CC(c5c[nH]c6ccccc56)CC4=O)cccc3C2=O)C(=O)N1 (stereo not shown) [Compound 38],+++ (survival rate (%)≤30),+++ (survival rate (%)≤30),++ (30<survival rate (%)≤60),+++ (survival rate (%)≤30),+++ (survival rate (%)≤30),< 3,+++ (survival rate (%)≤30),,,,,,
,O=C1CCC(N2Cc3c(NC(=O)CCCCNC=C4C(=O)CC(c5ccccc5)CC4=O)cccc3C2=O)C(=O)N1 (stereo not shown) [Compound 46],+++ (survival rate (%)≤30),+++ (survival rate (%)≤30),+ (60≤survival rate (%)<90),+ (60≤survival rate (%)<90),++ (30<survival rate (%)≤60),100 to 1000,++ (30<survival rate (%)≤60),,,,,,
,O=C1CCC(N2C(=O)c3cccc(NC=C4C(=O)CC(c5cccc(Cl)c5Cl)CC4=O)c3C2=O)C(=O)N1 (stereo not shown) [Compound 6],+ (60≤survival rate (%)<90),+ (60≤survival rate (%)<90),+ (60≤survival rate (%)<90),+ (60≤survival rate (%)<90),+ (60≤survival rate (%)<90),< 3,+ (60≤survival rate (%)<90),,,,,,
,O=C1CCC(N2Cc3c(NC(=O)CN4CCN(CCNC=C5C(=O)CC(c6c(Cl)ccc(C(F)(F)F)c6Cl)CC5=O)CC4)cccc3C2=O)C(=O)N1 (stereo not shown) [Compound 158],+++ (survival rate (%)≤30),+++ (survival rate (%)≤30),+ (60≤survival rate (%)<90),+++ (survival rate (%)≤30),++ (30<survival rate (%)≤60),< 3,++ (30<survival rate (%)≤60),,,,,,
,O=C1CCC(N2Cc3c(NC=C4C(=O)CC(c5cccc(Cl)c5F)CC4=O)cccc3C2=O)C(=O)N1 (stereo not shown) [Compound 146],+++ (survival rate (%)≤30),+ (60≤survival rate (%)<90),+ (60≤survival rate (%)<90),+++ (survival rate (%)≤30),+++ (survival rate (%)≤30),< 3,+++ (survival rate (%)≤30),,,,,,
,O=C1CCC(N2Cc3c(NC=C4C(=O)CC(c5c(Br)ccc6[nH]cc(Cl)c56)CC4=O)cccc3C2=O)C(=O)N1 (stereo not shown) [Compound 14],+++ (survival rate (%)≤30),+++ (survival rate (%)≤30),+ (60≤survival rate (%)<90),++ (30<survival rate (%)≤60),+ (60≤survival rate (%)<90),< 3,+ (60≤survival rate (%)<90),,,,,,
,O=C1CCC(N2Cc3c(NC=C4C(=O)CC(c5cc(O)ccc5Br)CC4=O)cccc3C2=O)C(=O)N1 (stereo not shown) [Compound 148],+++ (survival rate (%)≤30),+++ (survival rate (%)≤30),+ (60≤survival rate (%)<90),+++ (survival rate (%)≤30),++ (30<survival rate (%)≤60),< 3,++ (30<survival rate (%)≤60),,,,,,
,O=C1CCC(N2C(=O)c3cccc(NC=C4C(=O)CC(c5c(Br)ccc6[nH]cc(Cl)c56)CC4=O)c3C2=O)C(=O)N1 (stereo not shown) [Compound 13],+++ (survival rate (%)≤30),+++ (survival rate (%)≤30),++ (30<survival rate (%)≤60),++ (30<survival rate (%)≤60),+ (60≤survival rate (%)<90),< 3,+ (60≤survival rate (%)<90),,,,,,
,O=C1CCC(N2Cc3c(NC=C4C(=O)CC(c5cccc6[nH]ccc56)CC4=O)cccc3C2=O)C(=O)N1 (stereo not shown) [Compound 3],++ (30<survival rate (%)≤60),+ (60≤survival rate (%)<90),+ (60≤survival rate (%)<90),+++ (survival rate (%)≤30),+ (60≤survival rate (%)<90),< 3,+ (60≤survival rate (%)<90),,,,,,
< 3,CCOC(=O)C1C(=O)C(=CNc2cccc3c2C(=O)N(C2CCC(=O)NC2=O)C3=O)C(=O)CC1c1cccc2[nH]ccc12 (stereo not shown) [Compound 26],,,,,,,,60 to 90,60 to 90,60 to 90,60 to 90,60 to 90,60 to 90
,O=C1CCC(N2Cc3c(NC=C4C(=O)CC(c5c(Br)ccc(F)c5Cl)CC4=O)cccc3C2=O)C(=O)N1 (stereo not shown) [Compound 11],+ (60≤survival rate (%)<90),+ (60≤survival rate (%)<90),+ (60≤survival rate (%)<90),+ (60≤survival rate (%)<90),+++ (survival rate (%)≤30),< 3,+ (60≤survival rate (%)<90),,,,,,
,O=C1CCC(N2Cc3c(NC=C4C(=O)CC(c5c(C(F)(F)F)ccc(Cl)c5Cl)CC4=O)cccc3C2=O)C(=O)N1 (stereo not shown) [Compound 141],+++ (survival rate (%)≤30),+++ (survival rate (%)≤30),+ (60≤survival rate (%)<90),+++ (survival rate (%)≤30),++ (30<survival rate (%)≤60),< 3,++ (30<survival rate (%)≤60),,,,,,
100 to 1000,CCCNC(=O)C1CC(=O)C(=CNc2cccc3c2CN(C2CCC(=O)NC2=O)C3=O)C(=O)C1 (stereo not shown) [Compound 114],,,,,,,,60 to 90,30 to 60,60 to 90,30 to 60,30 to 60,60 to 90
,O=C1CCC(N2Cc3c(NC=C4C(=O)CC(c5c(C(F)(F)F)ccc(Cl)c5F)CC4=O)cccc3C2=O)C(=O)N1 (stereo not shown) [Compound 142],+++ (survival rate (%)≤30),+ (60≤survival rate (%)<90),+ (60≤survival rate (%)<90),+++ (survival rate (%)≤30),+++ (survival rate (%)≤30),< 3,+++ (survival rate (%)≤30),,,,,,
,O=C1CCC(N2Cc3c(NC=C4C(=O)CC(c5ccccc5Br)CC4=O)cccc3C2=O)C(=O)N1 (stereo not shown) [Compound 18],+ (60≤survival rate (%)<90),+ (60≤survival rate (%)<90),+ (60≤survival rate (%)<90),++ (30<survival rate (%)≤60),++ (30<survival rate (%)≤60),< 3,+ (60≤survival rate (%)<90),,,,,,
< 3,CCOC(=O)C1C(=O)C(=CNc2cccc3c2CN(C2CCC(=O)NC2=O)C3=O)C(=O)CC1c1cccc2[nH]ccc12 (stereo not shown) [Compound 25],,,,,,,,60 to 90,60 to 90,60 to 90,60 to 90,60 to 90,60 to 90

# From patent US11021457B2, “Class of isoindolone-imide ring-1,3-dione-2-ene compounds, composition and use thereof” (WIGEN BIOMEDICINE TECHNOLOGY (SHANGHAI) CO., LTD., priority 2017, dated 2021)
